Measured values published in patent US10820591B2, “Substituted sulfonyl amides for controlling animal pests” (Bayer Aktiengesellschaft, priority 2016, dated 2020).

These compounds were tested on Meloidogyne incognita (assay: Meloidogyne incognita test (sand, lettuce, gall formation)). Settings: Meloidogyne incognita, 336 h, 20 ppm, after 14 days; read-out: nematicidal efficacy (formation of galls).
Format: in vivo
Summary of the method: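 Vessels held sand, diluted compound solution, M. incognita egg/larvae suspension and lettuce seeds, and the plants grew for 14 days. Efficacy in % came from root gall formation: 100% means no galls, 0% means galls equal to the untreated control.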

SMILES | pest or weed control at 20 ppm [%]
COc1ccc(F)c(S(=O)(=O)NC(=O)c2cn(-c3cc(Cl)cc(Cl)c3)c(C)n2)c1 [I-367] | 100
COc1ccc(Br)c(S(=O)(=O)NC(=O)c2cn(-c3cc(Cl)cc(Cl)c3)c(C)n2)c1 [I-368] | 90
COc1ccc(F)c(S(=O)(=O)NC(=O)c2cn(-c3cc(F)cc(Cl)c3)c(C)n2)c1 [I-369] | 100
COc1ccc(Br)c(S(=O)(=O)NC(=O)c2cn(-c3cc(F)cc(Cl)c3)c(C)n2)c1 [I-370] | 70
COc1ccc(F)c(S(=O)(=O)NC(=O)c2cn(-c3cc(F)cc(F)c3)c(C)n2)c1 [I-371] | 90
CC(=O)c1ccc(Cl)c(S(=O)(=O)NC(=O)c2cn(-c3cc(Cl)cc(Cl)c3)c(C)n2)c1 [I-372] | 100
CSc1cccc(Cl)c1S(=O)(=O)NC(=O)c1cn(-c2cc(Cl)cc(Cl)c2)c(C)n1 [I-374] | 100
CCSc1cccc(Cl)c1S(=O)(=O)NC(=O)c1cn(-c2cc(Cl)cc(Cl)c2)c(C)n1 [I-375] | 100
Cc1nc(C(=O)NS(=O)(=O)c2c(Cl)cccc2SC(C)C)cn1-c1cc(Cl)cc(Cl)c1 [I-376] | 90
Cc1nc(C(=O)NS(=O)(=O)c2c(F)cccc2NC(C)C)cn1-c1cc(Cl)cc(Cl)c1 [I-377] | 90
Cc1nc(C(=O)NS(=O)(=O)c2c(F)cccc2Cl)cn1-c1cc(Cl)cc(Cl)c1 [I-378] | 100
Cc1nc(C(=O)NS(=O)(=O)c2c(F)cccc2NC2CC2)cn1-c1cc(Cl)cc(Cl)c1 [I-379] | 100
Cc1nc(C(=O)NS(=O)(=O)c2c(F)cccc2NC2CC2)cn1-c1cc(F)cc(Cl)c1 [I-380] | 100
Cc1nc(C(=O)NS(=O)(=O)c2c(F)cccc2NC(C)C)cn1-c1cc(F)cc(Cl)c1 [I-381] | 100
CSc1cccc(Cl)c1S(=O)(=O)NC(=O)c1cn(-c2cc(F)cc(Cl)c2)c(C)n1 [I-382] | 100
CCSc1cccc(Cl)c1S(=O)(=O)NC(=O)c1cn(-c2cc(F)cc(Cl)c2)c(C)n1 [I-383] | 100
Cc1nc(C(=O)NS(=O)(=O)c2c(Cl)cccc2SC(C)C)cn1-c1cc(F)cc(Cl)c1 [I-384] | 100
CSc1cccc(Cl)c1S(=O)(=O)NC(=O)c1cn(-c2cc(F)cc(F)c2)c(C)n1 [I-386] | 100
Cc1nc(C(=O)NS(=O)(=O)c2c(Cl)cccc2SC(C)C)cn1-c1cc(F)cc(F)c1 [I-388] | 100
Cc1nc(C(=O)NS(=O)(=O)c2c(F)cccc2NC2CC2)cn1-c1cc(F)cc(F)c1 [I-389] | 100
CSc1cccc(Cl)c1S(=O)(=O)NC(=O)c1cn(-c2cc(Cl)cc(Cl)c2)cn1 [I-390] | 100
O=C(NS(=O)(=O)c1c(F)cccc1NC1CC1)c1cn(-c2cc(Cl)cc(Cl)c2)cn1 [I-393] | 100
CCc1nc(C(=O)NS(=O)(=O)c2cc(OC)ccc2Cl)cn1-c1cc(F)cc(F)c1 [I-394] | 100
COc1ccc(Cl)c(S(=O)(=O)NC(=O)c2cn(-c3cc(F)cc(F)c3)c(C(C)C)n2)c1 [I-395] | 90
Cc1nc(C(=O)NS(=O)(=O)c2c(F)cccc2Cl)cn1-c1cc(F)cc(Cl)c1 [I-396] | 90
Cc1nc(C(=O)NS(=O)(=O)c2c(F)cccc2Cl)cn1-c1cc(F)cc(F)c1 [I-397] | 70

SMILES | pest or weed control at 20 ppm [%]
CC(C)Sc1cccc(Cl)c1S(=O)(=O)NC(=O)c1cn(-c2cc(Cl)cc(Cl)c2)cn1 [I-398] | 90
Cc1nc(C(=O)NS(=O)(=O)c2c(F)cccc2Cl)cn1-c1cc(Cl)cc(C(F)(F)F)c1 [I-399] | 90
Cc1nc(C(=O)NS(=O)(=O)c2c(F)cccc2Cl)cn1-c1cc(F)cc(C(F)(F)F)c1 [I-400] | 90
CCc1nc(C(=O)NS(=O)(=O)c2cc(OC)ccc2Cl)cn1-c1cc(Cl)cc(Cl)c1 [I-402] | 90
COc1ccc(Cl)c(S(=O)(=O)NC(=O)c2cn(-c3cc(Cl)cc(Cl)c3)c(C(C)C)n2)c1 [I-403] | 90
CCc1nc(C(=O)NS(=O)(=O)c2cc(OC)ccc2Cl)cn1-c1cc(F)cc(C(F)(F)F)c1 [I-404] | 90
COc1ccc(Cl)c(S(=O)(=O)NC(=O)c2cn(-c3cc(F)cc(C(F)(F)F)c3)c(C(C)C)n2)c1 [I-405] | 100
CCc1nc(C(=O)NS(=O)(=O)c2cc(OC)ccc2Cl)cn1-c1cc(F)cc(Cl)c1 [I-406] | 100
CCc1nc(C(=O)NS(=O)(=O)c2cc(OC)ccc2Cl)cn1-c1cc(Cl)cc(C(F)(F)F)c1 [I-407] | 100
COc1ccc(Cl)c(S(=O)(=O)NC(=O)c2cn(-c3cc(F)cc(Cl)c3)c(C(C)C)n2)c1 [I-408] | 100
Cc1nc(C(=O)NS(=O)(=O)C(C)C)cn1-c1cc(Cl)cc(Cl)c1 [I-409] | 100
COc1ccc(S(=O)(=O)NC(=O)c2cn(-c3cc(F)cc(F)c3)c(C)n2)cc1 [I-410] | 100
COc1ccc(S(=O)(=O)NC(=O)c2cn(-c3cc(Cl)cc(Cl)c3)c(C)n2)cc1 [I-411] | 100
COc1ccc(Cl)c(S(=O)(=O)NC(=O)c2nc(C)n(-c3cc(Cl)cc(Cl)c3)c2F)c1 [I-413] | 100
O=C(NS(=O)(=O)c1ccccc1)c1ncn(-c2ccc(Cl)cc2)c1Cl [I-414] | 100
COc1ccc(S(=O)(=O)NC(=O)c2ncn(-c3ccc(Cl)cc3)c2Cl)cc1 [I-415] | 90
O=C(NS(=O)(=O)c1ccccc1Cl)c1ncn(-c2ccc(Cl)cc2)c1Cl [I-416] | 100
O=C(NS(=O)(=O)c1cccc(Cl)c1)c1ncn(-c2ccc(Cl)cc2)c1Cl [I-417] | 100
O=C(NS(=O)(=O)c1ccc(Cl)cc1)c1ncn(-c2ccc(Cl)cc2)c1Cl [I-418] | 100
COc1cccc(S(=O)(=O)NC(=O)c2ncn(-c3ccc(Cl)cc3)c2Cl)c1 [I-419] | 100
COc1ccccc1S(=O)(=O)NC(=O)c1ncn(-c2ccc(Cl)cc2)c1Cl [I-420] | 100
O=C(NS(=O)(=O)c1ccccc1)c1ncn(-c2ccc(C(F)(F)F)cc2)c1Cl [I-421] | 100
O=C(NS(=O)(=O)c1cccc(Cl)c1)c1ncn(-c2ccc(C(F)(F)F)cc2)c1Cl [I-422] | 100
O=C(NS(=O)(=O)c1ccccc1Cl)c1ncn(-c2ccc(C(F)(F)F)cc2)c1Cl [I-423] | 100
COc1ccccc1S(=O)(=O)NC(=O)c1ncn(-c2ccc(C(F)(F)F)cc2)c1Cl [I-424] | 100
COc1cccc(S(=O)(=O)NC(=O)c2ncn(-c3ccc(C(F)(F)F)cc3)c2Cl)c1 [I-425] | 100

SMILES | pest or weed control at 20 ppm [%]
COc1ccc(S(=O)(=O)NC(=O)c2ncn(-c3ccc(C(F)(F)F)cc3)c2Cl)cc1 [I-426] | 90
O=C(NS(=O)(=O)c1ccc(Cl)cc1)c1ncn(-c2ccccc2C(F)(F)F)c1Cl [I-427] | 100
O=C(NS(=O)(=O)c1cccc(Cl)c1)c1ncn(-c2ccccc2C(F)(F)F)c1Cl [I-428] | 90
COc1cccc(S(=O)(=O)NC(=O)c2ncn(-c3ccccc3C(F)(F)F)c2Cl)c1 [I-429] | 90
COc1ccc(S(=O)(=O)NC(=O)c2ncn(-c3ccccc3C(F)(F)F)c2Cl)cc1 [I-430] | 90
O=C(NS(=O)(=O)c1ccc(Cl)cc1)c1ncn(-c2cccc(C(F)(F)F)c2)c1Cl [I-431] | 90
O=C(NS(=O)(=O)c1cccc(Cl)c1)c1ncn(-c2cccc(C(F)(F)F)c2)c1Cl [I-432] | 90
O=C(NS(=O)(=O)c1ccccc1Cl)c1ncn(-c2cccc(C(F)(F)F)c2)c1Cl [I-433] | 100
O=C(NS(=O)(=O)c1ccccc1)c1ncn(-c2cccc(C(F)(F)F)c2)c1Cl [I-434] | 100
COc1ccccc1S(=O)(=O)NC(=O)c1ncn(-c2cccc(C(F)(F)F)c2)c1Cl [I-435] | 100
COc1cccc(S(=O)(=O)NC(=O)c2ncn(-c3cccc(C(F)(F)F)c3)c2Cl)c1 [I-436] | 100
COc1ccc(S(=O)(=O)NC(=O)c2ncn(-c3cccc(C(F)(F)F)c3)c2Cl)cc1 [I-437] | 90
COc1ccc(Cl)c(S(=O)(=O)NC(=O)c2cn(-c3cc(Cl)nc(Cl)c3)c(Cl)n2)c1 [I-439] | 90
O=C(NS(=O)(=O)c1ccccc1Cl)c1nc(Br)n(CCC(F)(F)F)c1Cl [I-440] | 100
COc1ccc(Cl)c(S(=O)(=O)NC(=O)c2cn(-c3cc(Cl)cc(Cl)c3)c(Br)n2)c1 [I-441] | 100
COc1ccc(Cl)c(S(=O)(=O)NC(=O)c2nc(Br)n(-c3cc(Cl)cc(Cl)c3)c2Br)c1 [I-442] | 100
COc1ccc(Cl)c(S(=O)(=O)NC(=O)c2cn(-c3cc(Cl)cc(Cl)c3)c(Cl)n2)c1 [I-443] | 100
O=C(NS(=O)(=O)c1ccccc1Cl)c1cn(-c2cc(Cl)cc(Cl)c2)c(Cl)n1 [I-444] | 100
CSc1nc(C(=O)NS(=O)(=O)c2ccccc2Cl)cn1CCC(F)(F)F [I-445] | 90
CSc1nc(C(=O)NS(=O)(=O)c2ccccc2Cl)c(Cl)n1CCC(F)(F)F [I-446] | 90
O=C(NS(=O)(=O)c1ccccc1Cl)c1cc(-c2cc(Cl)cc(Cl)c2)n(CC(F)(F)F)n1 [I-447] | 90
COc1ccc(Cl)c(S(=O)(=O)NC(=O)c2cc(-c3cc(Cl)cc(Cl)c3)n(CC(F)(F)F)n2)c1 [I-448] | 100
CCOc1ccc(Cl)c(S(=O)(=O)NC(=O)c2nc(Cl)n(CCC(F)(F)F)c2Cl)c1 [I-449] | 100
CC(C)Oc1ccc(Cl)c(S(=O)(=O)NC(=O)c2nc(Cl)n(CCC(F)(F)F)c2Cl)c1 [I-450] | 100
